Reference: publication PMC3299860 (Antiviral Research, 2012)
“Also recorded” adds a separate entry of the source.

Legend:
[1] = system: A/New Jersey/15/2007 (H1N1); assay type: biochemical, human influenza virus
A/Fukui/20/2004 (H3N2) = assay type: biochemical, human influenza virus

## CC(=O)N[C@H]1[C@H]([C@H](O)[C@H](O)CO)OC(C(=O)O)=C[C@@H]1N=C(N)N [zanamivir, 4-guanidino-Neu5Ac2en]
[1]
  susceptibility to NAI (in words): zanamivir-sensitive; also recorded: susceptible
A/Fukui/20/2004 (H3N2)
  susceptibility to NAI (in words): susceptible
